The data set can be described thus: in vivo Pimecrolimus release from stent implanted in porcine model, residual drug load by HPLC. The settings on record: PLGA matrix reservoir stent, FIG. 4, porcine. From the text: In the example of FIG. 4, a stent is cut from a cobalt chromium alloy according to the pattern shown in FIGS. 1 and 2 and Pimecrolimus is loaded in a PLGA matrix within reservoirs in the stent. The drug and matrix are arranged for directional delivery of the drug primarily to the mural side of the stent. The in vivo drug release rate is programmed by providing different concentrations of drug in different regions of the matrix similar to the regions shown in FIG. 3, with a luminal region 50 of primarily PLGA, a middle region 60 of about 75% Pimecrolimus and about 25% PLGA, and a mural region 70 of about 95% Pimecrolimus and about 5% PLGA. The reservoirs are filled, by volume, with about 20-25% base or luminal region, 40-45% middle region, and 25-30% mural region. The in vivo drug releases described herein are normalized for a 3.0 mm diameter×16 mm long expanded stent which has almost 500 reservoirs and a total drug volume of about 0.54 mm^3.
The measurement of in vivo Pimecrolimus release from a stent can be performed according to the following Example. The in vivo release from other implantable medical devices can be performed in a similar manner by removal of tissue and measurement of total drug load and release kinetics by high pressure liquid chromatography (HPLC).
Stents are implanted in a porcine model and explanted at selected time points by removing the entire artery section. The expanded stents are labeled and frozen. The tissue is removed from the stent by slicing the tissue on the outside of the stent lengthwise, inverting the tissue, and removing the tissue by cutting and turning the tissue inside out. The stent may still be covered by a tough elastic membrane which is then removed by splitting the membrane and peeling it off the stent. For longer time points, there will also be a tube of tissue inside the stent. This tube is separated from the stent with tweezers, turned inside out and pulled out of the stent.
The following is the test procedure for generating the in vivo release curves for Pimecrolimus in FIG. 4.
The total drug load (TDL) of Pimecrolimus from a stent is determined by extracting all the polymer and drug from the stent in the solvent acetonitrile. The amount of Pimecrolimus in a solution sample is determined by High Pressure Liquid Chromatography (HPLC). The following conditions are used:
The in vivo release kinetic (RK) for Pimecrolimus from a stent is determined by running the TDL for multiple explanted time points. The TDL for the explanted samples is subtracted from the TDL of an unimplanted stent to determine the amount of Pimecrolimus released at each of the explanted time points.

Data on one compound can be found in patent publication US20060204547A1, “Drug delivery stent with extended in vivo release of anti-inflammatory” (Conor Medsystems, Inc., priority 2005, published 2006).

As for `CC[C@@H]1/C=C(\C)C[C@H](C)C[C@H](OC)[C@H]2O[C@@](O)(C(=O)C(=O)N3CCCC[C@H]3C(=O)O[C@H](/C(C)=C/[C@@H]3CC[C@H](Cl)[C@H](OC)C3)[C@H](C)[C@@H](O)CC1=O)[C@H](C)C[C@@H]2OC` [Pimecrolimus], the “in vivo cumulative release, percent of total Pimecrolimus loaded on stent” value is, setting by setting: (4 hour) “about 10%”; (24 hour) “about 25%”; (2 day) “about 40%”; (8 day) “about 50%”; (30 day) “about 70%”; (50 day) “about 70%”.
